In patent US8106047B2, “Triazolophthalazines” (NYCOMED GmbH, priority 2005, dated 2012):
“Also recorded” adds a separate entry of the source.

Test system: HUVEC monolayers
Experiment: Inhibition of macromolecule (HRP) permeability of thrombin-stimulated HUVEC monolayers
Assay type: cell-based, human
Settings: 10 μM Motapizone (PDE3) and 1 μM RP73401 (PDE4) together, 1 U/ml thrombin
Experimental: Method to Assess Inhibition of Macromolecule Permeability of HUVEC Monolayers
The procedure to measure macromolecule permeability of endothelial cell monolayers followed the method described by Langeler & van Hinsbergh (1988) with modifications. Human umbilical vein endothelial cells were isolated from umbilical cords according to standard procedures (Jaffe et al. 1973) and cultured in endothelial cell basal medium (EBM) supplemented with 2% FCS, 0.5 ng/ml VEGF, 10 ng/ml bFGF, 5 ng/ml EGF, 20 ng/ml Long R3 IGF-1, 0.2 μg/ml hydrocortisone, 1 μg/ml ascorbic acid, 22.5 μg/ml heparin, 50 μg/ml gentamicin, 50 ng/ml amphotericin B (EGM2 purchased from Promocell GmbH, Heidelberg, Germany). At confluency, cells were trypsinized and replated at 73000 cells per well on 3 μm polycarbonate filter Transwell inserts (Costar GmbH, Bodenheim, Germany) precoated with 10 μg cm^2−1 Fibronectin (Sigma, Taufkirchen, Germany). HUVECs were cultured in EGM2 (100 μl in the upper wells and 600 μl in the lower wells) over four days prior the experiments and medium was changed every other day. At the day of the experiment culture medium was replaced by M199 with 1% human serum albumin. Endothelial cells were preincubated with cyclic nucleotide modifiers (the selective PDE3 inhibitor motapizone, the selective PDE4 inhibitor RP73401, the cGMP generators ANP or SNP and PDE2 inhibitors) for 15 min. HUVECs were then stimulated with Thrombin (1 U ml^−1) (Sigma, Taufkichen, Germany) and horsh radish peroxidase (5 μg/ml) (Sigma, Taufkirchen, Germany) as the macromolecule marker protein was added to the upper wells. Following 1 h incubation time Transwells were removed and the activity of horsh radish peroxidase that penetrated the endothelial cell monolayer was measured in the lower wells with the 3,3′,5,5′-tetramethylbenzidine liquid substrate system from Sigma (Taufkirchen, Germany).
In parallel, compounds according to the invention can inhibit Thrombin-induced permeability of HUVEC monolayers for horsh radish peroxidase (HRP) as a macromolecule marker. […] The concentration-dependent inhibition of HRP permeability at different concentrations was assessed from the percent inhibition in the presence and absence of the PDE2 inhibitors and in the presence of 1 μM RP73401, 10 μM Motapizone and 100 nM ANP.
Inhibition of SNP- or ANP-Induced Permeability of HUVEC Monolayers:
HUVEC cells on 3 μm polycarbonate filters (Transwells) were preincubated with 1 μM RP73401 (to block PDE4) and 10 μM Motapizone (to block PDE3), 1 mM SNP or 100 nM ANP and test sample over 15 min and then stimulated with 1 U/ml thrombin. HRP passage into the lower wells was assessed after 60 min.

Row | Compound | Thrombin-induced increase of HRP permeability (hyperpermeability)
1 | COc1ccc(C(=O)Nc2c(Cl)cncc2Cl)cc1OC1CCCC1 [RP73401, reference compound] | completely abolished; also recorded: completely blocked
2 | CC1CC(=O)NN=C1c1cc(-n2ccnc2)cs1 (centres unmarked) [Motapizone, reference compound] | completely abolished; also recorded: completely blocked

Same assay, conditions: Homo sapiens, 1 h; HUVEC on Transwells, 1 μM RP73401, 10 μM Motapizone, 1 mM SNP or 100 nM ANP, 1 U/ml thrombin, HRP passage after 60 min; read-out: Inhibition of SNP- or ANP-induced permeability, −log IC50 [mol/l] (converted)

Row | Compound | IC50
3 | COc1ccc(-c2nnc3c4ccccc4c(Nc4ccc(NS(=O)(=O)Cc5ccccc5)cc4)nn23)cc1 [Compound 4, N-{4-[3-(4-Methoxy-phenyl)-[1,2,4]triazolo[3,4-a]phthalazin-6-ylamino]-phenyl}-1-phenyl-methanesulfonamide] | 0.501 to 126 nM
4 | COc1ccc(-c2nnc3c4ccccc4c(Nc4cccc(NS(=O)(=O)N5CCOCC5)c4)nn23)cc1 [Compound 34, Morpholine-4-sulfonic acid {3-[3-(4-methoxy-phenyl)-[1,2,4]triazolo[3,4-a]phthalazin-6-ylamino]-phenyl}-amide] | 0.501 to 126 nM
5 | COc1ccc(-c2nnc3c4ccccc4c(Nc4cccc(NS(=O)(=O)c5ccc(C)cc5)c4)nn23)cc1 [Compound 9, N-{3-[3-(4-Methoxy-phenyl)-[1,2,4]triazolo[3,4-a]phthalazin-6-ylamino]-phenyl}-4-methyl-benzenesulfonamide] | 0.501 to 126 nM
6 | CN(C)S(=O)(=O)c1cccc(Nc2nn3c(-c4ccc(Br)cc4)nnc3c3ccccc23)c1 [Compound 28, [3-(N,N-dimethylsulfamoyl)-phenyl]-[3-(4-bromo-phenyl)-[1,2,4]triazolo[3,4-a]phthalazin-6-yl]-amine] | 0.501 to 126 nM
7 | COc1ccc(-c2nnc3c4ccccc4c(Nc4cccc(S(=O)(=O)N5CCOCC5)c4)nn23)cc1 [Compound 25, [3-(4-Methoxyphenyl)-[1,2,4]triazolo[3,4-a]phthalazin-6-yl]-[3-(morpholine-4-sulfonyl)-phenyl]-amine] | 0.501 to 126 nM
8 | CN(C)S(=O)(=O)c1cccc(Nc2nn3c(-c4ccccc4C(F)(F)F)nnc3c3ccccc23)c1 [Compound 33, [3-(N,N-dimethylsulfamoyl)-phenyl]-[3-(2-trifluoromethyl-phenyl)-[1,2,4]triazolo[3,4-a]phthalazin-6-yl]-amine] | 0.501 to 126 nM
9 | COc1ccc(-c2nnc3c4ccccc4c(Nc4cccc(S(=O)(=O)N(C)C)c4)nn23)cc1 [Compound 13, [3-(N,N-dimethylsulfamoyl)-phenyl]-[3-(4-methoxy-phenyl)-[1,2,4]triazolo[3,4-a]phthalazin-6-yl]-amine] | 0.501 to 126 nM
10 | COc1ccc(-c2nnc3c4ccccc4c(Nc4ccc(S(=O)(=O)N(C)C)cc4)nn23)cc1 [Compound 7, [4-(N,N-dimethylsulfamoyl)-phenyl]-[3-(4-methoxy-phenyl)-[1,2,4]triazolo[3,4-a]phthalazin-6-yl]-amine] | 0.501 to 126 nM
11 | CN(C)S(=O)(=O)c1cccc(Nc2nn3c(-c4ccccc4Br)nnc3c3ccccc23)c1 [Compound 27, [3-(N,N-dimethylsulfamoyl)-phenyl]-[3-(2-bromo-phenyl)-[1,2,4]triazolo[3,4-a]phthalazin-6-yl]-amine] | 0.501 to 126 nM

Test system: not given
Experiment: not given
Settings: not given

Row | Compound | melting point
12 | COc1ccc(-c2nnc3c4ccccc4c(Nc4ccc(NS(=O)(=O)Cc5ccccc5)cc4)nn23)cc1 [Compound 4, N-{4-[3-(4-Methoxy-phenyl)-[1,2,4]triazolo[3,4-a]phthalazin-6-ylamino]-phenyl}-1-phenyl-methanesulfonamide] | 304 to 306 °C
13 | COc1ccc(-c2nnc3c4ccccc4c(Nc4cccc(NS(=O)(=O)N5CCOCC5)c4)nn23)cc1 [Compound 34, Morpholine-4-sulfonic acid {3-[3-(4-methoxy-phenyl)-[1,2,4]triazolo[3,4-a]phthalazin-6-ylamino]-phenyl}-amide] | 264 °C (dec.)
14 | COc1ccc(-c2nnc3c4ccccc4c(Nc4cccc(NS(=O)(=O)c5ccc(C)cc5)c4)nn23)cc1 [Compound 9, N-{3-[3-(4-Methoxy-phenyl)-[1,2,4]triazolo[3,4-a]phthalazin-6-ylamino]-phenyl}-4-methyl-benzenesulfonamide] | 336 to 346 °C (dec.)
15 | COc1ccc(Cc2nnc3c4ccccc4c(Nc4ccc(S(=O)(=O)N5CCCCC5)cc4)nn23)cc1 [Compound 35, [3-(4-Methoxy-benzyl)-[1,2,4]triazolo[3,4-a]phthalazin-6-yl]-[4-(piperidine-1-sulfonyl)-phenyl]-amine] | 283 to 285 °C
16 | CN(C)S(=O)(=O)c1cccc(Nc2nn3c(-c4ccc(Br)cc4)nnc3c3ccccc23)c1 [Compound 28, [3-(N,N-dimethylsulfamoyl)-phenyl]-[3-(4-bromo-phenyl)-[1,2,4]triazolo[3,4-a]phthalazin-6-yl]-amine] | 290 to 293 °C
17 | COc1ccc(-c2nnc3c4ccccc4c(Nc4cccc(S(=O)(=O)N5CCOCC5)c4)nn23)cc1 [Compound 25, [3-(4-Methoxyphenyl)-[1,2,4]triazolo[3,4-a]phthalazin-6-yl]-[3-(morpholine-4-sulfonyl)-phenyl]-amine] | 265.4 °C
18 | COc1ccc(-c2nnc3c4ccccc4c(Nc4cccc(NS(=O)(=O)c5cn(C)cn5)c4)nn23)cc1 [Compound 11, 1-Methyl-1H-imidazole-4-sulfonic acid {3-[3-(4-methoxy-phenyl)-[1,2,4]triazolo[3,4-a]phthalazin-6-ylamino]-phenyl}-amide] | 184 to 187 °C
19 | COc1ccc(-c2nnc3c4ccccc4c(Nc4ccc(NS(=O)(=O)c5cccc(OC)c5)cc4)nn23)cc1 [Compound 5, 3-Methoxy-N-{4-[3-(4-methoxy-phenyl)-[1,2,4]triazolo[3,4-a]phthalazin-6-ylamino]-phenyl}-benzenesulfonamide] | 290 °C
20 | COc1ccc(-c2nnc3c4ccccc4c(Nc4cccc(NS(=O)(=O)c5ccc(C(C)=O)cc5)c4)nn23)cc1 [Compound 12, 4-Acetyl-N-{3-[3-(4-methoxy-phenyl)-[1,2,4]triazolo[3,4-a]phthalazin-6-ylamino]-phenyl}-benzenesulfonamide] | 352 to 354 °C
21 | COc1ccc(-c2nnc3c4ccccc4c(Nc4cccc(NS(=O)(=O)c5ccc(NC(C)=O)cc5)c4)nn23)cc1 [Compound 18, N-(4-{3-[3-(4-Methoxy-phenyl)-[1,2,4]triazolo[3,4-a]phthalazin-6-ylamino]-phenylsulfamoyl}-phenyl)-acetamide] | 328 to 331 °C
22 | COc1ccc(-c2nnc3c4ccccc4c(Nc4cccc(NS(=O)(=O)c5ccc(N6CCOCC6)nc5)c4)nn23)cc1 [Compound 16, 6-Morpholin-4-yl-pyridine-3-sulfonic acid {3-[3-(4-methoxy-phenyl)-[1,2,4]triazolo[3,4-a]phthalazin-6-ylamino]-phenyl}-amide] | 323 to 329 °C
23 | COc1ccc(-c2nnc3c4ccccc4c(Nc4cccc(S(=O)(=O)N(C)C)c4)nn23)cc1 [Compound 24, 3-[3-(4-Methoxy-phenyl)-[1,2,4]triazolo[3,4-a]phthalazin-6-ylamino]-N,N-dimethyl-benzenesulfonamide] | 220 to 227 °C
24 | COc1ccc(-c2nnc3c4ccccc4c(Nc4cccc(S(N)(=O)=O)c4)nn23)cc1 [Compound 23, 3-[3-(4-Methoxy-phenyl)-[1,2,4]triazolo[3,4-a]phthalazin-6-ylamino]-benzenesulfonamide] | 342 to 349 °C
25 | COc1ccc(-c2nnc3c4ccccc4c(Nc4ccc(NS(=O)(=O)c5cn(C)cn5)cc4)nn23)cc1 [Compound 2, 1-Methyl-1H-imidazole-4-sulfonic acid {4-[3-(4-methoxy-phenyl)-[1,2,4]triazolo[3,4-a]phthalazin-6-ylamino]-phenyl}-amide] | 346 to 348 °C

Continued, values first:

Row | melting point | Compound
26 | 281 to 284 °C | COc1ccc(-c2nnc3c4ccccc4c(Nc4ccc(-c5nn[nH]n5)cc4)nn23)cc1 [Compound T4, [3-(4-Methoxy-phenyl)-[1,2,4]triazolo[3,4-a]phthalazin-6-yl]-[4-(2H-tetrazol-5-yl)-phenyl]-amine]
27 | 262 to 264 °C | COc1ccc(Cc2nnc3c4ccccc4c(Nc4cccc(-c5nnn(C)n5)c4)nn23)cc1 [Compound T9, [3-(4-Methoxy-benzyl)-[1,2,4]triazolo[3,4-a]phthalazin-6-yl]-[3-(2-methyl-2H-tetrazol-5-yl)-phenyl]-amine]
28 | 292 to 293 °C | COc1ccc(Cc2nnc3c4ccccc4c(Nc4cccc(-c5nn[nH]n5)c4)nn23)cc1 [Compound T8, [3-(4-Methoxy-benzyl)-[1,2,4]triazolo[3,4-a]phthalazin-6-yl]-[3-(2H-tetrazol-5-yl)-phenyl]-amine]
29 | 305 to 308 °C | COc1ccc(-c2nnc3c4ccccc4c(Nc4cccc(-c5nn[nH]n5)c4)nn23)cc1 [Compound T3, [3-(4-Methoxy-phenyl)-[1,2,4]triazolo[3,4-a]phthalazin-6-yl]-[3-(2H-tetrazol-5-yl)-phenyl]-amine]
30 | 314 °C | COc1ccc(-c2nnc3c4ccccc4c(Nc4ccc(C#N)cc4)nn23)cc1 [Compound T2, 4-[3-(4-Methoxyphenyl)-[1,2,4]triazolo[3,4-a]phthalazin-6-ylamino]-benzonitrile]
31 | 289 to 293 °C | COc1ccc(-c2nnc3c4ccccc4c(Nc4ccc(-c5nnn(C)n5)cc4)nn23)cc1 [Compound T6, [3-(4-Methoxy-phenyl)-[1,2,4]triazolo[3,4-a]phthalazin-6-yl]-[4-(2-methyl-2H-tetrazol-5-yl)-phenyl]-amine]
32 | 256 to 259 °C | COc1ccc(-c2nnc3c4ccccc4c(Nc4cccc(-c5nnn(C)n5)c4)nn23)cc1 [Compound T5, [3-(4-Methoxy-phenyl)-[1,2,4]triazolo[3,4-a]phthalazin-6-yl]-[3-(2-methyl-2H-tetrazol-5-yl)-phenyl]-amine]
